In patent US20040156869A1, “2-substituted quinazolin-4-ylamine analogues” (Neurogen Corporation, priority 2002, published 2004):

Molecular target: human capsaicin receptor (VR1) (Homo sapiens, UniProt Q8NER1)
Experiment: Capsaicin receptor binding assay ([3H]RTX competition, VR1-transfected HEK293 membranes)

human capsaicin receptor (VR1), sequence (Q8NER1 whole entry): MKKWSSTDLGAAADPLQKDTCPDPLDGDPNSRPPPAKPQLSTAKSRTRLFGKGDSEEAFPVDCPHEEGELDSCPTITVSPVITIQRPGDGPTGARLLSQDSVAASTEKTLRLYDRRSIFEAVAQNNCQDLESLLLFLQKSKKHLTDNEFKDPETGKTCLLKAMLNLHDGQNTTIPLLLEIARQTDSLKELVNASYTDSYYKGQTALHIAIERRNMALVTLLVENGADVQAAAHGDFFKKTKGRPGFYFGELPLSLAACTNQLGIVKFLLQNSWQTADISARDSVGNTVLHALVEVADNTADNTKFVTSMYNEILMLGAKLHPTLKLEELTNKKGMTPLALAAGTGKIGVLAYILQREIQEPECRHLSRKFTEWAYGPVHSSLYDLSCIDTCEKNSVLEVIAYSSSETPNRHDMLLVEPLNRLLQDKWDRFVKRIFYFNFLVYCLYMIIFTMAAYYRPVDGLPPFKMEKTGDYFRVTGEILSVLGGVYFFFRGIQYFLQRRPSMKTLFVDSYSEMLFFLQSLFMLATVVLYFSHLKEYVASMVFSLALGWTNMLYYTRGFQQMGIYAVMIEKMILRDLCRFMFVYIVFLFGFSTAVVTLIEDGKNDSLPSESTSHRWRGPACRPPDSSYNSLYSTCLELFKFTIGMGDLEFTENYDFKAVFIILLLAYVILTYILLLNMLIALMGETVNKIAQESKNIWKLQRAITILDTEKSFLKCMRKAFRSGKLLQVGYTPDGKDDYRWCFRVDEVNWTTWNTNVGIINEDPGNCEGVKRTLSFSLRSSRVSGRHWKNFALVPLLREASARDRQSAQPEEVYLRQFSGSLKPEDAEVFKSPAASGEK

Ki, < 1 µM:
CCOCc1nc(Nc2ccc(C(F)(F)F)nc2)c2ccc(-c3ncccc3Cl)nc2n1 [Compound 146, [7-(3-Chloro-pyridin-2-yl)-2-ethoxymethyl-pyrido[2,3-d]pyrimidin-4-yl]-(6-trifluoromethyl-pyridin-3-yl)-amine]
COCc1nc(Nc2ccc(C(F)(F)F)nc2)c2ccc(-c3ncccc3C(F)(F)F)nc2n1 [Compound 147, [2-Methoxymethyl-7-(3-trifluoromethyl-pyridin-2-yl)-pyrido[2,3-d]pyrimidin-4-yl]-(6-trifluoromethyl-pyridin-3-yl)-amine]
COCc1nc(Nc2ccc(C(F)(F)F)nc2)c2ccc(-c3ncccc3C)nc2n1 [Compound 148, [2-Methoxymethyl-7-(3-methyl-pyridin-2-yl)-pyrido[2,3-d]pyrimidin-4-yl]-(6-trifluoromethyl-pyridin-3-yl)-amine]
COCc1nc(Nc2ccc(C3(C#N)CCC3)cc2)c2ccc(-c3ncccc3C)nc2n1 [Compound 149, 1-{4-[2-Methoxymethyl-7-(3-methyl-pyridin-2-yl)-pyrido[2,3-d]pyrimidin-4-ylamino]-phenyl}-cyclobutanecarbonitrile]
CCOCc1nc(Nc2ccc(C3(C#N)CCC3)cc2)c2ccc(-c3ncccc3Cl)nc2n1 [Compound 150, 1-{4-[7-(3-Chloro-pyridin-2-yl)-2-ethoxymethyl-pyrido[2,3-d]pyrimidin-4-ylamino]-phenyl}-cyclobutanecarbonitrile]
Cc1cccnc1-c1ccc2c(Nc3ccc(C4(C#N)CCC4)cc3)nc(COCC(C)C)nc2n1 [Compound 151, 1-{4-[2-Isobutoxymethyl-7-(3-methyl-pyridin-2-yl)-pyrido[2,3-d]pyrimidin-4-ylamino]-phenyl}-cyclobutanecarbonitrile]
FC(F)(F)c1ccc(Nc2nc(COC3CCOCC3)nc3cc(-c4ncccc4C(F)(F)F)ccc23)cn1 [Compound 154, [2-(Tetrahydro-pyran-4-yloxymethyl)-7-(3-trifluoromethyl-pyridin-2-yl)-quinazolin-4-yl]-(6-trifluoromethyl-pyridin-3-yl)-amine]
CC(C)(C)c1ccc(Nc2nc(CO)nc3cc(-c4ncccc4C(F)(F)F)ccc23)cc1 [Compound 155, [4-(4-tert-Butyl-phenylamino)-7-(3-trifluoromethyl-pyridin-2-yl)-quinazolin-2-yl]-methanol]
CC(C)c1ccc(Nc2nc(CO)nc3cc(-c4ncccc4C(F)(F)F)ccc23)cc1 [Compound 156, [4-(4-Isopropyl-phenylamino)-7-(3-trifluoromethyl-pyridin-2-yl)-quinazolin-2-yl]-methanol]
CC(C)(C)c1ccc(Nc2nc(CO)nc3cc(-c4ncccc4Cl)ccc23)cc1 [Compound 157, [4-(4-tert-Butyl-phenylamino)-7-(3-chloro-pyridin-2-yl)-quinazolin-2-yl]-methanol]
CC(C)c1ccc(Nc2nc(CO)nc3cc(-c4ncccc4Cl)ccc23)cc1 [Compound 158, [7-(3-Chloro-pyridin-2-yl)-4-(4-isopropyl-phenylamino)-quinazolin-2-yl]-methanol]
COCc1nc(Nc2ccc(S(=O)(=O)C(F)(F)F)cc2)c2ccc(-c3ncccc3C)nc2n1 [Compound 159, [2-Methoxymethyl-7-(3-methyl-pyridin-2-yl)-pyrido[2,3-d]pyrimidin-4-yl]-(4-trifluoromethanesulfonyl-phenyl)-amine]
COCc1nc(Nc2ccc(C3(C(=O)N4C[C@@H](C)O[C@@H](C)C4)CCC3)cc2)c2ccc(-c3ncccc3C(F)(F)F)nc2n1 [Compound 160, (2,6-Dimethyl-morpholin-4-yl)-(1-{4-[2-methoxymethyl-7-(3-trifluoromethyl-pyridin-2-yl)-pyrido[2,3-d]pyrimidin-4-ylamino]-phenyl}-cyclobutyl)-methanone]
Cc1cccnc1-c1ccc2c(Nc3ccc(C(C)(C)C#N)cc3)nc(COCC(C)C)nc2n1 [Compound 161, 2-{4-[2-Isobutoxymethyl-7-(3-methyl-pyridin-2-yl)-pyrido[2,3-d]pyrimidin-4-ylamino]-phenyl}-2-methyl-propionitrile]
CC(C)COCc1nc(Nc2ccc(C(C)(C)C)cc2)c2ccc(-c3ncccc3C(F)(F)F)nc2n1 [Compound 162, (4-terr-Butyl-phenyl)-[2-isobutoxymethyl-7-(3-trifluoromethyl-pyridin-2-yl)-pyrido[2,3-d]pyrimidin-4-yl]-amine]
CC(C)COCc1nc(Nc2ccc(C(C)C)cc2)c2ccc(-c3ncccc3C(F)(F)F)nc2n1 [Compound 163, [2-Isobutoxymethyl-7-(3-trifluoromethyl-pyridin-2-yl)-pyrido[2,3-d]pyrimidin-4-yl]-(4-isopropyl-phenyl)-amine]
CC(C)COCc1nc(Nc2ccc(C(F)(F)F)cc2)c2ccc(-c3ncccc3C(F)(F)F)nc2n1 [Compound 164, [2-Isobutoxymethyl-7-(3-trifluoromethyl-pyridin-2-yl)-pyrido[2,3-d]pyrimidin-4-yl]-(4-trifluoromethyl-phenyl)-amine]
CC(C)COCc1nc(Nc2ccc(C(F)(F)F)nc2)c2ccc(-c3ncccc3C(F)(F)F)nc2n1 [Compound 165, [2-Isobutoxymethyl-7-(3-trifluoromethyl-pyridin-2-yl)-pyrido[2,3-d]pyrimidin-4-yl]-(6-trifluoromethyl-pyridin-3-yl)-amine]
Cc1cc(Nc2nc(COCC(C)C)nc3nc(-c4ncccc4C(F)(F)F)ccc23)ccc1C(F)(F)F [Compound 166, [2-Isobutoxymethyl-7-(3-trifluoromethyl-pyridin-2-yl)-pyrido[2,3-d]pyrimidin-4-yl]-(3-methyl-4-trifluoromethyl-phenyl)-amine]
CC(C)COCc1nc(Nc2ccc(C(C)(C)C#N)cc2)c2ccc(-c3ncccc3C(F)(F)F)nc2n1 [Compound 167, 2-{4-[2-Isobutoxymethyl-7-(3-trifluoromethyl-pyridin-2-yl)-pyrido[2,3-d]pyrimidin-4-ylamino]-phenyl}-2-methyl-propionitrile]
CC(C)COCc1nc(Nc2ccc(S(=O)(=O)C(F)(F)F)cc2)c2ccc(-c3ncccc3C(F)(F)F)nc2n1 [Compound 168, [2-Isobutoxymethyl-7-(3-trifluoromethyl-pyridin-2-yl)-pyrido[2,3-d]pyrimidin-4-yl]-(4-trifluoromethanesulfonyl-phenyl)-amine]
CCOC(=O)COCc1nc(Nc2ccc(C(F)(F)F)cc2)c2ccc(-c3ncccc3C(F)(F)F)cc2n1 [Compound 169, [4-(4-Trifluoromethyl-phenylamino)-7-(3-trifluoromethyl-pyridin-2-yl)-quinazolin-2-ylmethoxy]-acetic acid ethyl ester]
OCc1nc(Nc2ccc(C(F)(F)F)cc2)c2ccc(-c3ncccc3C(F)(F)F)nc2n1 [Compound 171, [4-(4-Trifluoromethyl-phenylamino)-7-(3-trifluoromethyl-pyridin-2-yl)-pyrido[2,3-d]pyrimidin-2-yl]-methanol]
CCOC(=O)c1nc(Nc2ccc(C(F)(F)F)cc2)c2ccc(-c3ncccc3C)nc2n1 [Compound 172, 7-(3-Methyl-pyridin-2-yl)-4-(4-trifluoromethyl-phenylamino)-pyrido[2,3-d]pyrimidine-2-carboxylic acid ethyl ester]
CCOC(=O)c1nc(Nc2ccc(C(F)(F)F)cc2)c2ccc(-c3ncccc3C(F)(F)F)nc2n1 [Compound 173, 4-(4-Trifluoromethyl-phenylamino)-7-(3-trifluoromethyl-pyridin-2-yl)-pyrido[2,3-d]pyrimidine-2-carboxylic acid ethyl ester]
Cc1cccnc1-c1ccc2c(Nc3ccc(C(F)(F)F)cc3)nc(C3CCOC3)nc2n1 (centres unmarked) [Compound 174, [7-(3-Methyl-pyridin-2-yl)-2-(tetrahydro-furan-3-yl)-pyrido[2,3-d]pyrimidin-4-yl]-(4-trifluoromethyl-phenyl)-amine]
Cc1cccnc1-c1ccc2c(Nc3ccc(C(C)(C)C#N)cc3)nc(C3CCOC3)nc2n1 (centres unmarked) [Compound 175, 2-Methyl-2-{4-[7-(3-methyl-pyridin-2-yl)-2-(tetrahydro-furan-3-yl)-pyrido[2,3-d]pyrimidin-4-ylamino]-phenyl}-propionitrile]
CC(C)COCc1nc(Nc2ccc(C(F)(F)F)cc2)c2ccc(-c3ncccc3Cl)nc2n1 [Compound 176, [7-(3-Chloro-pyridin-2-yl)-2-isobutoxymethyl-pyrido[2,3-d]pyrimidin-4-yl]-(4-trifluoromethyl-phenyl)-amine]
CC(C)COCc1nc(Nc2ccc(C(F)(F)F)nc2)c2ccc(-c3ncccc3Cl)nc2n1 [Compound 177, [7-(3-Chloro-pyridin-2-yl)-2-isobutoxymethyl-pyrido[2,3-d]pyrimidin-4-yl]-(6-trifluoromethyl-pyridin-3-yl)-amine]
Cc1cc(Nc2nc(COCC(C)C)nc3nc(-c4ncccc4Cl)ccc23)ccc1C(F)(F)F [Compound 178, [7-(3-Chloro-pyridin-2-yl)-2-isobutoxymethyl-pyrido[2,3-d]pyrimidin-4-yl]-(3-methyl-4-trifluoromethyl-phenyl)-amine]
CC(C)COCc1nc(Nc2ccc(C(C)(C)C#N)cc2)c2ccc(-c3ncccc3Cl)nc2n1 [Compound 179, 2-{4-[7-(3-Chloro-pyridin-2-yl)-2-isobutoxymethyl-pyrido[2,3-d]pyrimidin-4-ylamino]-phenyl}-2-methyl-propionitrile]
CC(C)COCc1nc(Nc2ccc(OC(F)(F)F)cc2)c2ccc(-c3ncccc3Cl)nc2n1 [Compound 180, [7-(3-Chloro-pyridin-2-yl)-2-isobutoxymethyl-pyrido[2,3-d]pyrimidin-4-yl]-(4-trifluoromethoxy-phenyl)-amine]
